ChEMBL document CHEMBL3046568, “Synthesis, antimicrobial and DNA cleavage studies of some 4-aryloxymethylcoumarins obtained by reaction of 4-bromomethylcoumarins with bidentate nucleophiles” (2012)
Converted amounts (≈) assume the structure as drawn. The source made the active and inactive calls. No cut-off for these calls is given here.

Experiments:
Bacillus subtilis = assay: Antibacterial activity against Bacillus subtilis MTCC 297 after 24 hr by disk diffusion method; type: functional; details: for MIC: Bacillus subtilis, MTCC 297, 24 h
Candida albicans = assay: Antifungal activity against Candida albicans after 3 to 4 days by serial dilution method; type: functional; details: for MIC: Candida albicans
Escherichia coli [1] = assay: Induction of Escherichia coli MTCC 1089 DNA cleavage at 50 ug after 2 hr by agarose gel electrophoresis
Mucor fuscus = assay: Antifungal activity against Mucor fuscus after 3 to 4 days by serial dilution method; type: functional; details: for MIC: Mucor fuscus
Escherichia coli [2] = assay: Antibacterial activity against Escherichia coli MTCC 1089 after 24 hr by disk diffusion method; type: functional; details: for MIC: Escherichia coli, MTCC 1089, 24 h
Aspergillus niger [3] = assay: Antifungal activity against Aspergillus niger after 3 to 4 days by serial dilution method; type: functional; details: for MIC: Aspergillus niger
Pseudomonas aeruginosa = assay: Antibacterial activity against Pseudomonas aeruginosa MTCC 1034 after 24 hr by disk diffusion method; type: functional; details: for MIC: Pseudomonas aeruginosa, MTCC 1034, 24 h
Fusarium oxysporum = assay: Antifungal activity against Fusarium oxysporum after 3 to 4 days by serial dilution method; type: functional; details: for MIC: Fusarium oxysporum
Enterococcus faecalis = assay: Antibacterial activity against Enterococcus faecalis MTCC 3382 after 24 hr by disk diffusion method; type: functional; details: for MIC: Enterococcus faecalis, MTCC 3382, 24 h
Klebsiella pneumoniae = assay: Antibacterial activity against Klebsiella pneumoniae MTCC 3384 after 24 hr by disk diffusion method; type: functional; details: for MIC: Klebsiella pneumoniae, MTCC 3384, 24 h
Staphylococcus aureus [4] = assay: Antibacterial activity against Staphylococcus aureus MTCC 3160 after 24 hr by disk diffusion method; type: functional; details: for MIC: Staphylococcus aureus, MTCC 3160, 24 h
Staphylococcus aureus [5] = assay: Induction of Staphylococcus aureus MTCC 3160 DNA cleavage at 50 ug after 2 hr by agarose gel electrophoresis
Aspergillus fumigatus = assay: Antifungal activity against Aspergillus fumigatus after 3 to 4 days by serial dilution method; type: functional; details: for MIC: Aspergillus fumigatus
Aspergillus niger [6] = assay: Induction of Aspergillus niger DNA cleavage at 50 ug after 2 hr by agarose gel electrophoresis
Penicillium chrysogenum = assay: Antifungal activity against Penicillium chrysogenum after 3 to 4 days by serial dilution method; type: functional; details: for MIC: Penicillium chrysogenum

SMILES	inhibition zone (IZ) (Bacillus subtilis)	MIC (Bacillus subtilis)	inhibition zone (IZ) (Candida albicans)	MIC (Candida albicans)	Activity (Escherichia coli [1])	inhibition zone (IZ) (Mucor fuscus)	MIC (Mucor fuscus)	inhibition zone (IZ) (Escherichia coli [2])	MIC (Escherichia coli [2])	inhibition zone (IZ) (Aspergillus niger [3])	MIC (Aspergillus niger [3])	inhibition zone (IZ) (Pseudomonas aeruginosa)	MIC (Pseudomonas aeruginosa)	inhibition zone (IZ) (Fusarium oxysporum)	MIC (Fusarium oxysporum)	inhibition zone (IZ) (Enterococcus faecalis)	MIC (Enterococcus faecalis)	inhibition zone (IZ) (Klebsiella pneumoniae)	MIC (Klebsiella pneumoniae)	inhibition zone (IZ) (Staphylococcus aureus [4])	other results
CCN(CC)c1cccc(OCc2cc(=O)oc3ccc(Br)cc23)c1	17 mm	6.25 µg/mL (≈ 15.5 µM)	16 mm	12.5 µg/mL (≈ 31.1 µM)	Active	18 mm	12.5 µg/mL (≈ 31.1 µM)	15 mm	12.5 µg/mL (≈ 31.1 µM)	20 mm	6.25 µg/mL (≈ 15.5 µM)	23 mm	6.25 µg/mL (≈ 15.5 µM)	14 mm	25 µg/mL (≈ 62.1 µM)	19 mm	6.25 µg/mL (≈ 15.5 µM)	18 mm	6.25 µg/mL (≈ 15.5 µM)	18 mm	MIC (Staphylococcus aureus [4]): 6.25 µg/mL (≈ 15.5 µM); Activity (Staphylococcus aureus [5]): Active; inhibition zone (IZ) (Aspergillus fumigatus): 20 mm; MIC (Aspergillus fumigatus): 6.25 µg/mL (≈ 15.5 µM); Activity (Aspergillus niger [6]): Active; inhibition zone (IZ) (Penicillium chrysogenum): 21 mm; MIC (Penicillium chrysogenum): 6.25 µg/mL (≈ 15.5 µM)
O=c1cc(COc2cccc(O)c2)c2c(ccc3ccccc32)o1	12 mm	25 µg/mL (≈ 78.5 µM)	14 mm	12.5 µg/mL (≈ 39.3 µM)	inactive	13 mm	25 µg/mL (≈ 78.5 µM)	12 mm	25 µg/mL (≈ 78.5 µM)	17 mm	12.5 µg/mL (≈ 39.3 µM)	18 mm	12.5 µg/mL (≈ 39.3 µM)	12 mm	25 µg/mL (≈ 78.5 µM)	14 mm	12.5 µg/mL (≈ 39.3 µM)	15 mm	12.5 µg/mL (≈ 39.3 µM)	11 mm	MIC (Staphylococcus aureus [4]): 25 µg/mL (≈ 78.5 µM); Activity (Staphylococcus aureus [5]): inactive; inhibition zone (IZ) (Aspergillus fumigatus): 15 mm; MIC (Aspergillus fumigatus): 12.5 µg/mL (≈ 39.3 µM); Activity (Aspergillus niger [6]): inactive; inhibition zone (IZ) (Penicillium chrysogenum): 16 mm; MIC (Penicillium chrysogenum): 25 µg/mL (≈ 78.5 µM)
Cc1ccc2c(COc3cccc(O)c3)cc(=O)oc2c1	14 mm	12.5 µg/mL (≈ 44.3 µM)	9 mm	25 µg/mL (≈ 88.6 µM)	inactive	14 mm	25 µg/mL (≈ 88.6 µM)	9 mm	50 µg/mL (≈ 177 µM)	19 mm	6.25 µg/mL (≈ 22.1 µM)	16 mm	12.5 µg/mL (≈ 44.3 µM)	9 mm	50 µg/mL (≈ 177 µM)	16 mm	12.5 µg/mL (≈ 44.3 µM)	13 mm	12.5 µg/mL (≈ 44.3 µM)	14 mm	MIC (Staphylococcus aureus [4]): 12.5 µg/mL (≈ 44.3 µM); Activity (Staphylococcus aureus [5]): inactive; inhibition zone (IZ) (Aspergillus fumigatus): 16 mm; MIC (Aspergillus fumigatus): 12.5 µg/mL (≈ 44.3 µM); Activity (Aspergillus niger [6]): inactive; inhibition zone (IZ) (Penicillium chrysogenum): 18 mm; MIC (Penicillium chrysogenum): 12.5 µg/mL (≈ 44.3 µM)
CCN(CC)c1cccc(OCc2cc(=O)oc3cc(C)ccc23)c1	13 mm	12.5 µg/mL (≈ 37 µM)	8 mm	25 µg/mL (≈ 74.1 µM)	inactive	16 mm	12.5 µg/mL (≈ 37 µM)	9 mm	50 µg/mL (≈ 148 µM)	18 mm	12.5 µg/mL (≈ 37 µM)	16 mm	12.5 µg/mL (≈ 37 µM)	7 mm	50 µg/mL (≈ 148 µM)	15 mm	6.25 µg/mL (≈ 18.5 µM)	14 mm	12.5 µg/mL (≈ 37 µM)	16 mm	MIC (Staphylococcus aureus [4]): 12.5 µg/mL (≈ 37 µM); Activity (Staphylococcus aureus [5]): inactive; inhibition zone (IZ) (Aspergillus fumigatus): 15 mm; MIC (Aspergillus fumigatus): 12.5 µg/mL (≈ 37 µM); Activity (Aspergillus niger [6]): inactive; inhibition zone (IZ) (Penicillium chrysogenum): 18 mm; MIC (Penicillium chrysogenum): 12.5 µg/mL (≈ 37 µM)
Cc1ccc2oc(=O)cc(COc3cccc(O)c3)c2c1	15 mm	12.5 µg/mL (≈ 44.3 µM)	10 mm	25 µg/mL (≈ 88.6 µM)	inactive	14 mm	25 µg/mL (≈ 88.6 µM)	8 mm	50 µg/mL (≈ 177 µM)	19 mm	6.25 µg/mL (≈ 22.1 µM)	14 mm	25 µg/mL (≈ 88.6 µM)	8 mm	50 µg/mL (≈ 177 µM)	15 mm	12.5 µg/mL (≈ 44.3 µM)	13 mm	12.5 µg/mL (≈ 44.3 µM)	13 mm	MIC (Staphylococcus aureus [4]): 12.5 µg/mL (≈ 44.3 µM); Activity (Staphylococcus aureus [5]): inactive; inhibition zone (IZ) (Aspergillus fumigatus): 16 mm; MIC (Aspergillus fumigatus): 12.5 µg/mL (≈ 44.3 µM); Activity (Aspergillus niger [6]): inactive; inhibition zone (IZ) (Penicillium chrysogenum): 18 mm; MIC (Penicillium chrysogenum): 12.5 µg/mL (≈ 44.3 µM)
